This is an account of results in article PMC10609152, “Synthesis, Computational, and Anticancer In Vitro Investigations of Aminobenzylnaphthols Derived from 2-Naphtol, Benzaldehydes, and α-Aminoacids via the Betti Reaction” (Molecules, 2023).

Like-named read-outs stand apart in the source and are kept apart here.

The subject of one data set is BxPC-3 cells. Put plainly: MTT assay, BxPC-3. The conditions noted are these: Homo sapiens. The class given is cell-based. An excerpt: (§1) The MTT assay, also known as the 3-(4,5-dimethylthiazol-2-yl)-2,5-diphenyltetrazolium bromide assay, is a colorimetric assay used in biological and biomedical research to determine cell viability and proliferation. The MTT assay works on the assumption that live cells with active metabolism convert MTT into formazan crystals. These crystals are insoluble; however, they can be dissolved in an organic solvent such as DMSO to produce a colorful solution. The color intensity is proportional to the number of viable cells present in the culture.
(§2) BxPC-3, HT-29, and WI-38 cells were seeded on 96-well plates at a density of approximately 8–10 × 10^3 cells per 100 µL medium/well. Cells were allowed to grow for 24 h in controlled conditions (37 °C; 5% CO2). […] The experimental design included nontreated controls and blanks (wells without cells). Following 24 or 72 h of culture with the investigated compounds, 20 μL of MTT tetrazolium salt (5 mg/mL in PBS) was added to each well, and the plates were incubated for 3 h in a humidified environment (37 °C; 5% CO2). The solutions were withdrawn after incubation, and 100 μL of DMSO was added to dissolve the formazan complexes. Afterward, a spectrophotometer (microplate reader Power Wave XS BioTek Instruments, Inc., Winooski, VT, USA) reading at 570 nm was conducted. The experiments were carried out in duplicates.
(§3) GraphPad Prism 7 software was used to calculate the concentration of an MMZ compound reflecting a 50% growth inhibition (IC50). IC50 is defined as a concentration of tested compound that leads to a reduction in cell pool viability by 50% compared to the negative control (accepted as 100%). % cell viability=Absorbance value of treated cells−Absorbance value of blank/(Absorbance value of untreated cells−Absorbance value of blank)×100%

In the next data set the test system is HT-29 cells. Put plainly: MTT assay, HT-29. The class given is cell-based. The conditions noted are these: Homo sapiens.
Source text: as §1, §2, §3
A general note: Tetrazolium assays rely on reduction of a dye to a coloured formazan, in cell work by metabolically active cells.

The nature of data set [1]: MTT cell viability, WI-38 normal fibroblasts. The conditions noted are these: human, read-out: % cell viability ± SD; for viability at 72 h: WI-38, 72 h; for viability at 24 h: WI-38, 24 h. The class given is cell-based. The procedure: as §2, §3
A short description of a further data set: solubility (remark). The class given is physicochemical.
Setting [2] is: BxPC-3, 24-h MTT, independent experiment 1, read-out: IC50(1).
[3] abbreviates: BxPC-3, 24-h MTT, independent experiment 2, read-out: IC50(2).
Setting [4] is: BxPC-3, 24-h MTT, read-out: Mean IC50 ± SD.
The mark [5] stands for this setting: BxPC-3, 72-h MTT, independent experiment 1, read-out: IC50(1).
[6] abbreviates: BxPC-3, 72-h MTT, independent experiment 2, read-out: IC50(2).
The mark [7] stands for this setting: BxPC-3, 72-h MTT, read-out: Mean IC50 ± SD.
The mark [8] stands for this setting: HT-29, 24-h MTT, independent experiment 1, read-out: IC50(1).
The mark [9] stands for this setting: HT-29, 24-h MTT, independent experiment 2, read-out: IC50(2).
Setting [10] is: HT-29, 24-h MTT, read-out: Mean IC50 ± SD.
Setting [11] is: HT-29, 72-h MTT, independent experiment 1, read-out: IC50(1).
Setting [12] is: HT-29, 72-h MTT, independent experiment 2, read-out: IC50(2).
Setting [13] is: HT-29, 72-h MTT, read-out: Mean IC50 ± SD.
Where [14] appears, read: WI-38 normal fibroblast cells, compound at IC50 concentration obtained for HT-29 cells.
Where [15] appears, read: BXPC-3, 24 h, read-out: IC50(1).
The mark [16] stands for this setting: BXPC-3, 24 h, read-out: IC50(2).
Setting [17] is: BXPC-3, 24 h, read-out: Mean IC50 ± SD.
Where [18] appears, read: BXPC-3, 72 h, read-out: IC50(1).
The mark [19] stands for this setting: BXPC-3, 72 h, read-out: IC50(2).
[20] abbreviates: BXPC-3, 72 h, read-out: Mean IC50 ± SD.
The mark [21] stands for this setting: HT-29, 24 h, read-out: Mean IC50 ± SD.
The mark [22] stands for this setting: HT-29, 72 h, read-out: Mean IC50 ± SD.
The mark [23] stands for this setting: compound at IC50 concentration estimated for BxPC-3 cells.
Setting [24] is: compound at IC50 concentration obtained for HT-29 cells.
[25] abbreviates: WI-38 normal fibroblast cells, compound at IC50 concentration estimated for BxPC-3 cells.

Turning to `COC(=O)[C@@H](N[C@@H](c1ccccc1)c1c(O)ccc2ccccc12)C(C)C` (mixture of isomers) [MMZ-33D, (S,S) and (R,R)-methyl ((2-hydroxynaphthalen-1-yl)(phenyl)methyl)-D-valinate], the IC50 is 47.8 µM with BxPC-3 cells (setting [2]); 50.8 µM in the data set on BxPC-3 cells (setting [3]); 49.3 ± 2.09 µM in the data set with BxPC-3 cells (setting [4]); 50 µM in the data set with BxPC-3 cells (setting [5]); 28.7 µM in the data set on BxPC-3 cells (setting [6]); 39.4 ± 15.1 µM in the data set on BxPC-3 cells (setting [7]). For the same molecule, the half-maximal inhibitory concentration (IC50) with HT-29 cells (setting [8]) was 60.4 µM; with HT-29 cells (setting [9]) it was 61.9 µM; with HT-29 cells (setting [10]) it was 61.1 ± 1.02 µM; in the data set with HT-29 cells (setting [11]), 32.3 µM; with HT-29 cells (setting [12]) it was 43.4 µM; with HT-29 cells (setting [13]), 37.9 ± 7.86 µM.
Take `COC(=O)[C@@H](N[C@@H](c1ccc(Cl)cc1)c1c(O)ccc2ccccc12)C(C)C` (mixture of isomers) [MMZ-39AA, (S,S) and (R,R)-methyl ((4-chlorophenyl)(2-hydroxynaphthalen-1-yl)methyl)-D-valinate]: the IC50 in the data set on BxPC-3 cells (setting [2]) was 61.4 µM; in the data set on BxPC-3 cells (setting [3]), 60.3 µM; in the data set on BxPC-3 cells (setting [4]), 60.8 ± 0.8 µM; in the data set on BxPC-3 cells (setting [5]), 44.8 µM; in the data set with BxPC-3 cells (setting [6]), 41.6 µM; with BxPC-3 cells (setting [7]), 43.2 ± 2.26 µM. For the same molecule, the IC50 in the data set with HT-29 cells (setting [8]) turned out to be 62.1 µM; with HT-29 cells (setting [9]), 64 µM; with HT-29 cells (setting [10]), 63.1 ± 1.36 µM; in the data set with HT-29 cells (setting [11]) it was 50.6 µM; in the data set on HT-29 cells (setting [12]), 65.6 µM; with HT-29 cells (setting [13]), 58.1 µM. In addition, the viability at 72 h in data set [1] (setting [14]) is 64 ± 4.9%.
Turning to `COC(=O)[C@H](Cc1ccccc1)N[C@H](c1ccccc1)c1c(O)ccc2ccccc12` (mixture of isomers) [MMZ-45B, (S,R) and (R,S)-methyl ((2-hydroxynaphthalen-1-yl)(phenyl)methyl)-L-phenylalaninate], the IC50 in the data set on BxPC-3 cells (setting [15]) worked out at 58.5 µM; in the data set with BxPC-3 cells (setting [16]) it was 40.5 µM; in the data set on BxPC-3 cells (setting [17]), 49.3 ± 13 µM; in the data set on BxPC-3 cells (setting [18]), 35.6 µM; with BxPC-3 cells (setting [19]), 24.7 µM; with BxPC-3 cells (setting [20]) it was 30.1 ± 7.73 µM. Further, the IC50 worked out at 29 µM in the data set on HT-29 cells (HT-29, 24 h, read-out: IC50(1)); 34.6 µM in the data set with HT-29 cells (HT-29, 24 h, read-out: IC50(2)); 31.8 ± 3.93 µM in the data set on HT-29 cells (setting [21]); 29.6 µM with HT-29 cells (HT-29, 72 h, read-out: IC50(1)); 38.7 µM with HT-29 cells (HT-29, 72 h, read-out: IC50(2)); 34.1 ± 6.39 µM in the data set with HT-29 cells (setting [22]). Also, the viability at 24 h in data set [1] (setting [23]) is 91.73 ± 0.87%. Moreover, the viability at 72 h was 86.7 ± 8.14% in data set [1] (setting [23]) and 88.2 ± 1.6% in data set [1] (setting [24]).
Take `COC(=O)C[C@H](N[C@@H](c1ccccc1)c1c(O)ccc2ccccc12)C(=O)OC` (mixture of isomers) [MMZ-147B, (S,S) and (R,R)-dimethyl ((2-hydroxynaphthalen-1-yl)(phenyl)methyl)-L-aspartate]: the IC50 in the data set with BxPC-3 cells (setting [2]) was 44.8 µM; in the data set with BxPC-3 cells (setting [3]), 59.7 µM; with BxPC-3 cells (setting [5]), 69.8 µM; in the data set with BxPC-3 cells (setting [6]), 39.3 µM; in the data set on BxPC-3 cells (setting [7]), 54.6 µM; with HT-29 cells (setting [8]), 44.2 µM. In addition, the IC50 in the data set on HT-29 cells (setting [9]) was determined as 46.8 µM; in the data set on HT-29 cells (setting [10]) it was 45.5 ± 1.77 µM; in the data set on HT-29 cells (setting [11]), 12.2 µM; in the data set on HT-29 cells (setting [12]), 17.6 µM; in the data set with HT-29 cells (setting [13]) it was 14.9 ± 3.8 µM. In addition, the viability at 24 h in data set [1] (setting [25]) is 69.94 ± 0.21%. Moreover, the values for the viability at 72 h in data set [1] (setting [25]) and in data set [1] (setting [14]) were 72.5 ± 4.37% and 86.8 ± 5%, respectively.
In the case of `COC(=O)C[C@H](N[C@H](c1ccccc1)c1c(O)ccc2ccccc12)C(=O)OC` (mixture of isomers) [MMZ-147CE, (S,R) and (R,S)-dimethyl ((2-hydroxynaphthalen-1-yl)(phenyl)methyl)-L-aspartate], the IC50 in the data set on BxPC-3 cells (setting [15]) amounted to 54.1 µM; with BxPC-3 cells (setting [16]), 41 µM; in the data set with BxPC-3 cells (setting [17]), 47.5 ± 9.26 µM; in the data set on BxPC-3 cells (setting [18]), 59.6 µM; with BxPC-3 cells (setting [19]) it was 34.1 µM; in the data set with BxPC-3 cells (setting [20]), 46.8 ± 18 µM. Also, the IC50 in the data set on HT-29 cells (HT-29, 24 h, read-out: IC50(1)) was 113 µM; in the data set on HT-29 cells (HT-29, 24 h, read-out: IC50(2)) it was 110 µM; with HT-29 cells (setting [21]), 112 ± 2.12 µM; in the data set with HT-29 cells (HT-29, 72 h, read-out: IC50(1)) it was 37.1 µM; in the data set with HT-29 cells (HT-29, 72 h, read-out: IC50(2)) it was 46.1 µM; with HT-29 cells (setting [22]), 41.6 ± 6.32 µM. In addition, the viability at 24 h in data set [1] (setting [23]) was 82.5 ± 1.8%. Moreover, in data set [1] (setting [24]), the viability at 72 h was found to be 66.9 ± 1.08%.
For `COC(=O)CC[C@H](N[C@@H](c1ccccc1)c1c(O)ccc2ccccc12)C(=O)OC` (mixture of isomers) [MMZ-148B, (S,S) and (R,R)-dimethyl ((2-hydroxynaphthalen-1-yl)(phenyl)methyl)-L-glutamate], the solubility entry in “solubility (remark)” is recorded as “poor solubility”.
Still for that read-out and setting: the same measure for `COC(=O)CC[C@H](N[C@H](c1ccccc1)c1c(O)ccc2ccccc12)C(=O)OC` (mixture of isomers) [MMZ-148C, (S,R) and (R,S)-dimethyl ((2-hydroxynaphthalen-1-yl)(phenyl)methyl)-L-glutamate]: “poor solubility”.
Turning to `COC(=O)[C@H](CC(C)C)N[C@@H](c1ccccc1)c1c(O)ccc2ccccc12` (mixture of isomers) [MMZ-167C, (S,S) and (R,R)-methyl ((2-hydroxynaphthalen-1-yl)(phenyl)methyl)-L-leucinate], the IC50 with BxPC-3 cells (setting [2]) amounted to 71.4 µM; in the data set with BxPC-3 cells (setting [3]) it was 61 µM; with BxPC-3 cells (setting [4]) it was 66.2 ± 7.36 µM; in the data set on BxPC-3 cells (setting [5]), 32.9 µM; in the data set on BxPC-3 cells (setting [6]), 31.2 µM; with BxPC-3 cells (setting [7]), 32.1 ± 1.15 µM. Moreover, the IC50 with HT-29 cells (setting [8]) turned out to be 47.7 µM; in the data set with HT-29 cells (setting [9]), 50 µM; with HT-29 cells (setting [11]), 27.8 µM; in the data set on HT-29 cells (setting [12]), 28.4 µM; in the data set on HT-29 cells (setting [13]), 28.1 ± 0.375 µM. In addition, the viability at 24 h in data set [1] (setting [25]) is 76.8 ± 1.8%; in data set [1] (setting [14]), 82.19 ± 0.69%.
Consider `O=c1[nH]cc(F)c(=O)[nH]1` [5-Fluorouracil, reference compound], for which the IC50 with BxPC-3 cells (setting [2]) came out at 49.4 µM; with BxPC-3 cells (setting [3]), 28.6 µM; in the data set on BxPC-3 cells (setting [4]), 39 ± 14.7 µM; in the data set on BxPC-3 cells (setting [5]), 14.8 µM; in the data set on BxPC-3 cells (setting [6]), 12.1 µM; with BxPC-3 cells (setting [7]), 13.4 ± 1.9 µM. Also, the IC50 in the data set on HT-29 cells (setting [8]) was found to be 48.8 µM; in the data set on HT-29 cells (setting [9]), 55.7 µM; with HT-29 cells (setting [10]) it was 52.3 ± 4.9 µM; with HT-29 cells (setting [11]), 5.16 µM; in the data set on HT-29 cells (setting [12]), 3.6 µM; in the data set with HT-29 cells (setting [13]), 4.38 ± 1.1 µM.

One may read the IC50 as the concentration needed to halve the response being measured. By viability is commonly meant a read-out of living cells in per cent, often relative to untreated cells.
